Reference: PubChem BioAssay AID330 (DTP/NCI, 2004)
Where “and” joins values, the source holds several entries; their conditions need not be identical. Equal entries are not always repeated. Inconclusive results and toxic doses are left out. The calls were made as follows: active = survival T/C of 150% or more; inactive = T/C below 125% in these data.

Test system: P388 leukemia ip, CD2F1 mice, survival T/C
Assay: NCI In Vivo Anticancer Drug Screen. Data for tumor model P388 Leukemia (intraperitoneal) in CD2F1 (CDF1) mice
Settings: endpoint: median survival time, higher = longer survival
Outline: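 Mice carrying the transplanted tumor received test compound or vehicle. Survival was recorded in each group, and the value is the treated-group measurement divided by that of the vehicle-treated control group.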

[1] = dose: 50.0 mg/kg/injection, schedule: Q01DX005 (ip), vehicle: saline with Tween-80
[2] = dose: 100.0 mg/kg/injection, schedule: Q01DX005 (ip), vehicle: saline with Tween-80
[3] = dose: 60.0 mg/kg/injection, schedule: Q01DX005 (ip), vehicle: saline with Tween-80
[4] = dose: 120.0 mg/kg/injection, schedule: Q01DX005 (ip), vehicle: saline with Tween-80
[5] = dose: 240.0 mg/kg/injection, schedule: Q01DX005 (ip), vehicle: saline with Tween-80
[6] = dose: 50.0 mg/kg/injection, schedule: Q01DX009 (ip), vehicle: Klucel (hydroxypropylcellulose) (HPC)
[7] = dose: 100.0 mg/kg/injection, schedule: Q01DX009 (ip), vehicle: Klucel (hydroxypropylcellulose) (HPC)
[8] = dose: 100.0 mg/kg/injection, schedule: Q04DX003 (ip), vehicle: saline with Tween-80
[9] = dose: 200.0 mg/kg/injection, schedule: Q04DX003 (ip), vehicle: saline with Tween-80
[10] = dose: 400.0 mg/kg/injection, schedule: Q04DX003 (ip), vehicle: saline with Tween-80
[11] = dose: 15.0 mg/kg/injection, schedule: Q01DX005 (ip), vehicle: saline with Tween-80
[12] = dose: 60.0 mg/kg/injection, schedule: Q01DX005 (ip), vehicle: Klucel (hydroxypropylcellulose) (HPC)
[13] = dose: 120.0 mg/kg/injection, schedule: Q01DX005 (ip), vehicle: Klucel (hydroxypropylcellulose) (HPC)
[14] = dose: 240.0 mg/kg/injection, schedule: Q01DX005 (ip), vehicle: Klucel (hydroxypropylcellulose) (HPC)
[15] = dose: 50.0 mg/kg/injection, schedule: Q01DX009 (ip), vehicle: saline with Tween-80
[16] = dose: 100.0 mg/kg/injection, schedule: Q01DX009 (ip), vehicle: saline with Tween-80
[17] = dose: 200.0 mg/kg/injection, schedule: Q01DX009 (ip), vehicle: saline with Tween-80

Measured: T/C

c1ccc(CN2COc3c(ccc4c3OCN(Cc3ccccc3)C4)C2)cc1
inactive: dose: 3.12 mg/kg/injection, schedule: Q01DX009 (ip), vehicle: Klucel (hydroxypropylcellulose) (HPC) 107 % of control | dose: 6.25 mg/kg/injection, schedule: Q01DX009 (ip), vehicle: Klucel (hydroxypropylcellulose) (HPC) 104 % of control and 95 % of control | dose: 12.5 mg/kg/injection, schedule: Q01DX009 (ip), vehicle: Klucel (hydroxypropylcellulose) (HPC) 103 % of control | dose: 25.0 mg/kg/injection, schedule: Q01DX009 (ip), vehicle: Klucel (hydroxypropylcellulose) (HPC) 94 % of control

C/C=C/C1CC2CC(CC(O)CC)CN2O1 (stereo not given)
inactive: dose: 25.0 mg/kg/injection, schedule: Q01DX005 (ip), vehicle: saline with Tween-80 108 % of control | [1] 100 % of control | [2] 110 % of control

CCCCCCC(CCC1CCCCC1)C(=O)O (stereo not given)
inactive: dose: 50.0 mg/kg/injection, schedule: Q01DX001 (ip), vehicle: saline with Tween-80 109 % of control | dose: 100.0 mg/kg/injection, schedule: Q01DX001 (ip), vehicle: saline with Tween-80 109 % of control | dose: 200.0 mg/kg/injection, schedule: Q01DX001 (ip), vehicle: saline with Tween-80 100 % of control

CCOC(=O)C1C(c2cc(OC)c(OC)c(OC)c2)c2cc3c(cc2OC1(C)OC)OCO3 (stereo not given)
inactive: [3] 86 % of control | [4] 86 % of control | [5] 88 % of control

Cc1cn(O)ccc1=S
inactive: dose: 100.0 mg/kg/injection, schedule: Q04DX002 (ip), vehicle: Klucel (hydroxypropylcellulose) (HPC) 101 % of control | dose: 200.0 mg/kg/injection, schedule: Q04DX002 (ip), vehicle: Klucel (hydroxypropylcellulose) (HPC) 99 % of control | dose: 400.0 mg/kg/injection, schedule: Q04DX002 (ip), vehicle: Klucel (hydroxypropylcellulose) (HPC) 101 % of control

O=C(O)C1C(C(=O)O)C2(Cl)C(Cl)=C(Cl)C1(Cl)C2(Cl)Cl.[Cu+2] (stereo not given)
inactive: dose: 50.0 mg/kg/injection, schedule: Q01DX001 (ip), vehicle: saline sonified 104 % of control | dose: 100.0 mg/kg/injection, schedule: Q01DX001 (ip), vehicle: saline sonified 118 % of control

CCOP(=O)(NNP(=O)(OCC)OCC)OCC
inactive: dose: 50.0 mg/kg/injection, schedule: Q01DX009 (ip), vehicle: saline 106 % of control | dose: 100.0 mg/kg/injection, schedule: Q01DX009 (ip), vehicle: saline 103 % of control | dose: 200.0 mg/kg/injection, schedule: Q01DX009 (ip), vehicle: saline 104 % of control

O=NN(C(=O)NC1CCOCC1)C1CCOCC1
inactive: dose: 25.0 mg/kg/injection, schedule: Q01DX001 (ip), vehicle: distilled water + Tween-80 101 % of control | dose: 50.0 mg/kg/injection, schedule: Q01DX001 (ip), vehicle: distilled water + Tween-80 101 % of control | dose: 100.0 mg/kg/injection, schedule: Q01DX001 (ip), vehicle: distilled water + Tween-80 102 % of control | dose: 200.0 mg/kg/injection, schedule: Q01DX001 (ip), vehicle: distilled water + Tween-80 105 % of control | dose: 400.0 mg/kg/injection, schedule: Q01DX001 (ip), vehicle: distilled water + Tween-80 102 % of control

O=C1C=CC2(C=C1)N=C(c1ccccc1)C=C2c1ccccc1
inactive: [1] 101 % of control | [2] 97 % of control | dose: 200.0 mg/kg/injection, schedule: Q01DX005 (ip), vehicle: saline with Tween-80 93 % of control

O=C(Nc1ncc([N+](=O)[O-])s1)C(Cl)Cl
inactive: [6] 118 % of control | [7] 111 % of control

O=S1(=O)C2CCC(Cl)C1CCC2Cl (stereo not given)
inactive: dose: 75.0 mg/kg/injection, schedule: Q04DX003 (ip), vehicle: Klucel (hydroxypropylcellulose) (HPC) 98 % of control | dose: 150.0 mg/kg/injection, schedule: Q04DX003 (ip), vehicle: Klucel (hydroxypropylcellulose) (HPC) 100 % of control

C=CCOc1cccc(OCC=C)c1C
inactive: [8] 113 % of control | [9] 100 % of control | [10] 104 % of control

CC(C)C12CN1C2(c1ccccc1)c1ccccc1 (stereo not given)
inactive: [3] 100 % of control | [4] 106 % of control | [5] 107 % of control

COC(=O)C1[C@@H](C(=O)c2ccccc2)N2C=Cc3ccccc3[C@@H]2[C@H]1C(=O)OC (stereo not given in full)
inactive: dose: 60.0 mg/kg/injection, schedule: Q01DX005 (ip), vehicle: saline + Tween-80 + alcohol 93 % of control | dose: 120.0 mg/kg/injection, schedule: Q01DX005 (ip), vehicle: saline + Tween-80 + alcohol 93 % of control | dose: 240.0 mg/kg/injection, schedule: Q01DX005 (ip), vehicle: saline + Tween-80 + alcohol 92 % of control

O=C(NC1CCCCC1)OCc1c(COC(=O)NC2CCCCC2)c2cccn2c2c1cnn2-c1ccccc1
inactive: [11] 93 % of control | dose: 30.0 mg/kg/injection, schedule: Q01DX005 (ip), vehicle: saline with Tween-80 88 % of control and 89 % of control | [4] 92 % of control and 96 % of control | [5] 99 % of control

O=C(O)c1cnc2cc3c(cc2c1Nc1ccc2c(c1)OCO2)OCO3
inactive: [12] 93 % of control | [13] 92 % of control | [14] 96 % of control

C=CCNC(=S)Nc1sc(C)c(C)c1C(=O)OCC
inactive: [15] 100 % of control | [16] 100 % of control | [17] 97 % of control

Cc1ccc(N2C(c3ccccc3)=CC(=C3C=CC(=O)C=C3)C=C2c2ccccc2)cc1
inactive: dose: 3.75 mg/kg/injection, schedule: Q01DX005 (ip), vehicle: saline with Tween-80 110 % of control | dose: 7.5 mg/kg/injection, schedule: Q01DX005 (ip), vehicle: saline with Tween-80 112 % of control | [11] 103 % of control

COC(=O)NC1=Nc2ccccc2N(C(=O)Oc2ccccc2)S1
inactive: dose: 50.0 mg/kg/injection, schedule: Q01DX005 (ip), vehicle: acetone 100 % of control | dose: 100.0 mg/kg/injection, schedule: Q01DX005 (ip), vehicle: acetone 100 % of control | dose: 200.0 mg/kg/injection, schedule: Q01DX005 (ip), vehicle: acetone 107 % of control

NC1CONC1=O (stereo not given)
inactive: [16] 109 % of control | [8] 100 % of control | [17] 100 % of control | [9] 109 % of control | dose: 400.0 mg/kg/injection, schedule: Q01DX009 (ip), vehicle: saline with Tween-80 100 % of control | [10] 109 % of control

CC1SC2(C(=O)Nc3ccccc32)N(c2ccc(Cl)cc2)C1=O (stereo not given)
inactive: [3] 101 % of control | [4] 103 % of control | [5] 96 % of control

COc1ccc2cc(-c3ccccc3)[s+]cc2c1
inactive: dose: 3.12 mg/kg/injection, schedule: Q01DX009 (ip), vehicle: DMSO 91 % of control | dose: 6.25 mg/kg/injection, schedule: Q01DX009 (ip), vehicle: DMSO 86 % of control | dose: 12.5 mg/kg/injection, schedule: Q01DX009 (ip), vehicle: DMSO 89 % of control | dose: 50.0 mg/kg/injection, schedule: Q01DX009 (ip), vehicle: DMSO 99 % of control

CC(=O)/C(C=NCC(C)(CN=C/C(C(C)=O)=C(/C)O)CN=C/C(C(C)=O)=C(/C)O)=C(\C)O (stereo not given)
inactive: [6] 97 % of control | [7] 100 % of control | dose: 200.0 mg/kg/injection, schedule: Q01DX009 (ip), vehicle: Klucel (hydroxypropylcellulose) (HPC) 100 % of control

COc1cccc(C2OC3=C(Nc4ccccc4N3)C2=O)c1 (stereo not given)
inactive: dose: 25.0 mg/kg/injection, schedule: Q01DX005 (ip), vehicle: Klucel (hydroxypropylcellulose) (HPC) 98 % of control | dose: 50.0 mg/kg/injection, schedule: Q01DX005 (ip), vehicle: Klucel (hydroxypropylcellulose) (HPC) 100 % of control | [12] 97 % of control | dose: 100.0 mg/kg/injection, schedule: Q01DX005 (ip), vehicle: Klucel (hydroxypropylcellulose) (HPC) 94 % of control | [13] 95 % of control | dose: 200.0 mg/kg/injection, schedule: Q01DX005 (ip), vehicle: Klucel (hydroxypropylcellulose) (HPC) 94 % of control | [14] 94 % of control | dose: 400.0 mg/kg/injection, schedule: Q01DX005 (ip), vehicle: Klucel (hydroxypropylcellulose) (HPC) 98 % of control

C/C(=N\NC(=O)c1cc(C)nc2ccc(Br)cc12)c1ccccc1O
inactive: [15] 88 % of control | [16] 94 % of control | [17] 110 % of control
